{"source": "patent US10716756B2", "about": "“Compositions and methods for reducing reperfusion injury” (VIVACELLE BIO, INC., priority 2016, dated 2020)", "key": {"[1]": {"conditions": "Battion et al. 1968; cited from earlier work"}, "[2]": {"conditions": "1 atm; from The Engineering Toolbox; cited from earlier work"}, "[3]": {"experiment": "Nitric oxide uptake/content of soybean oil emulsion by mass spectrometry", "experimental": "Some samples (1 ml each) were left open to air in 2.0 ml tubes for 30 minutes prior to dissolved gas analysis. In other experiments the emulsion was placed into a 15 ml tube. The headspace was filled with the gas under study and the gas was allowed to enter the emulsion by equilibration over 60 minutes with the tube on its side to increase the gas emulsion interaction. 50 μL drawn from each of these fluids were injected into a Sievers purge vessel at 37° C. containing 36 ml of a mildly acidic solution consisting of 32 ml of 1M HCL and 4 ml of 0.5M ascorbic acid. […] Signals generated at m/z=32 upon injection of RL and lipid emulsion samples were integrated using Peakfit and compared to those obtained with distilled water.\nIn another set of experiments we measured the uptake of nitric oxide by a commercially available 20% soybean oil emulsion, Liposyn III 20%. This emulsion contains 20% soybean oil, 1.2% egg phospholipids and 2.5% glycerin in water. Using NaOH pH was adjusted to 8.3. […] 100 ppm nitric oxide in helium was used to purge the hesdspace for two minutes taking care not to bubble the fluid. For sixty minutes the sample was allowed to reach gas-liquid equilibrium with the tube placed on its side to maximize gas-emulsion contact.\nThe uptake of NO and O2 by a commercial 20% soybean oil emulsion, Liposyn, was measured using mass spectrometry. […] To approximate field conditions, no warming or respiratory support was provided. Next, 55% of blood volume was removed within 2 minutes. […] The time of clinical death was defined as the cessation of respiration. […] In 5 mice a volume of Ringer's lactate equal to the volume of blood removed was administered via the internal jugular vein over 2 minutes immediately after the loss of chest wall movement. […] In 6 mice a volume of Ringer's lactate equal to the volume of blood removed was administered via the carotid artery over 2 minutes. […] In the next set of experiments, infusing Ringers' lactate was delayed for 3 minutes. […] A volume of emulsion equal to the volume of blood that had been removed was infused."}, "[4]": {"conditions": "anesthetic; cited from earlier work"}, "[5]": {"conditions": "published value; cited from earlier work"}, "human neutrophils": {"test_system": "human neutrophils", "conditions": "Simpkins et al. 1985; cited from earlier work"}}, "note": "Where “and” joins values, the source holds several entries; their conditions need not be identical. Equal values may be shown once."}
{"molecule": "O=O", "note": "[Oxygen]", "values": [{"measurement": "solubility in lipid relative to water", "setting": "[1]", "result": 4.41, "unit": "times"}]}
{"molecule": "O", "note": "[Water]", "values": [{"measurement": "Oxygen Content at 25° C. and Sea level Pressure", "setting": "[2]", "result": 8.3, "unit": "mg/L"}, {"measurement": "NO Content, single sample", "setting": "[3]; 100 ppm nitric oxide in helium headspace, 60 min equilibration", "result": "2.29 mol/L and 1.52 mol/L and 1.63 mol/L and 1.72 mol/L and 1.69 mol/L"}, {"measurement": "NO Content, Mean", "setting": "[3]; 100 ppm nitric oxide in helium headspace, 60 min equilibration, 5 samples", "result": 1.77, "unit": "mol/L"}, {"measurement": "NO content", "setting": "[3]; mass spectrometry, Example 7", "result": "2.12×10^−3±0.17 moles/L"}]}
{"molecule": "[Xe]", "note": "[Xenon]", "values": [{"measurement": "minimum alveolar concentration (MAC)", "setting": "[4]", "result": 71, "unit": "%"}]}
{"molecule": "hemoglobin", "values": [{"measurement": "oxygen release time", "setting": "[5]", "result": 17.5, "unit": "ms"}]}
{"molecule": "C=CCN1CC[C@]23c4c5ccc(O)c4O[C@H]2C(=O)CC[C@]3(O)[C@H]1C5", "note": "[(+) naloxone]", "values": [{"measurement": "concentration range that produces anti-inflammatory effect", "setting": "human neutrophils", "result": "10^−5-10^−4 M"}]}
